Measured values published in patent publication EP0172919A1, “CEPHALOSPORIN DERIVATIVES, PROCESS FOR THEIR PREPARATION, AND THEIR PHARMACEUTICAL USE” (TEIJIN LIMITED, priority 1984, dated 1985).
≈ marks a conversion by molar mass, not a printed value. Where two headings read alike, the source gives them in different places.

Tests used:
Assay in all cases: In vitro antibacterial activity, two-fold agar-plate dilution method (MIC)
Assay type in all cases: cell-based
Enterobacter cloacae 963 = details: Enterobacter cloacae 963, agar dilution, 37°C for 16 hours
Protocol: (§1) In vitro antibacterial activity was determined by the two-fold agar-plate dillution method.
(§2) One loopful of an overnight culture of each test starin in Trypticase-soy broth (10^6 viable cells per mt) was streaked on heart infusion agar (Muller-Hinton Agar) containing graded concentrations of representative test compound, and the minimal inhibitory concentration (MIC) was expressed in terms of µg/ml after incubation at 37°C for 16 hours.
(§3) In vitro antibacterial activities of other compounds of the present invention were determined in the same way as in Example 26.

Proleus morgani IFO3848 = details: 37°C for 16 hours
Protocol: as §1, §2, §3

Proleus vulgaria OX-19 = details: 37°C for 16 hours
Protocol: as §1, §2, §3

[1] = system: Proleus vulgaris IFO 3850; details: Proleus vulgaris IFO 3850, agar dilution, 37°C for 16 hours
Protocol: as §1, §2, §3

[2] = system: Pseudomonas aeruginosa IFO3445; details: Pseudomonas aeruginosa IFO3445, agar dilution, 37°C for 16 hours
Protocol: as §1, §2, §3

Salmonera paratyphi 1015 = system: Salmonera paratyphi 1015
Protocol: as §1, §2, §3

[3] = system: Serratia marcescens IAM1184
Protocol: as §1, §2, §3

Staphyrococcus Terajima = details: Staphyrococcus Terajima, agar dilution, 37°C for 16 hours
Protocol: as §1, §2, §3

[4] = Serratia marcescens, IAM1184, 16 h

Compound	MIC (Enterobacter cloacae 963; read-out: MIC) [µg/mL]	MIC (Proleus morgani IFO3848; read-out: MIC) [µg/mL]	MIC (Proleus vulgaria OX-19; read-out: MIC) [µg/mL]	MIC ([1]; read-out: MIC) [µg/mL]	MIC ([2]; read-out: MIC) [µg/mL]	MIC (Salmonera paratyphi 1015; 16 h) [µg/mL]	MIC [3, 4] [µg/mL]	MIC (Staphyrococcus Terajima; read-out: MIC) [µg/mL]	MIC (Enterobacter cloacae 963) [µg/mL]	MIC (Proleus morgani IFO3848) [µg/mL]	MIC (Proleus vulgaria OX-19) [µg/mL]	MIC [1] [µg/mL]	MIC [2] [µg/mL]	MIC (Salmonera paratyphi 1015; Salmonera paratyphi 1015, agar dilution, 37°C for 16 hours) [µg/mL]	MIC ([3]; Serratia marcescens IAM1184, agar dilution, 37°C for 16 hours) [µg/mL]	MIC (Staphyrococcus Terajima) [µg/mL]	MIC ([3]; Serratia marcescens IAM1184, agar dilution, 37°C for 16 hours, read-out: MIC) [µg/mL]
CO/N=C(\C(=O)N[C@@H]1C(=O)N2C(C(=O)[O-])=C(C[N+]34CCC(CC3)C(O)C4)CS[C@H]12)c1csc(N)n1 (stereo partly drawn) [Compound (302), (6R,7R)-7-[(Z)-2-(2-aminothiazol-4-yℓ)-2-methoxyiminoacetoamido]-3-(1-aza-3-hydro-xybicyclo[2,2,2]octane-l-io)methyl-3-cephem-4-carboxylate]	0.025 (≈ 0.0478 µM)	0.0063 (≈ 0.0121 µM)	0.025 (≈ 0.0478 µM)	0.0063 (≈ 0.0121 µM)	0.39 (≈ 0.746 µM)	0.0125 (≈ 0.0239 µM)	0.0125 (≈ 0.0239 µM)	0.1 (≈ 0.191 µM)	–	–	–	–	–	–	–	–	–
CO/N=C(\C(=O)N[C@@H]1C(=O)N2C(C(=O)[O-])=C(C[N+]34CCCC3CCC4C)CS[C@H]12)c1csc(N)n1 (stereo partly drawn) [Compound (106), (6R,7R)-7-[(Z)-2-(2-aminothiazol-4-yℓ)-2-methoxyiminoacetoamido]-3-(l-aza-8-methl-bicyclo[3,3,0]octane-l-io)methyl-3-cephem-4-carboxylate]	–	–	–	–	–	–	–	–	0.2 (≈ 0.384 µM)	0.025 (≈ 0.048 µM)	0.025 (≈ 0.048 µM)	0.0125 (≈ 0.024 µM)	0.78 (≈ 1.5 µM)	0.025 (≈ 0.048 µM)	0.05 (≈ 0.096 µM)	0.2 (≈ 0.384 µM)	–
CC(C)(O/N=C(\C(=O)N[C@@H]1C(=O)N2C(C(=O)[O-])=C(C[N+]34CCCC3CCC4)CS[C@H]12)c1csc(N)n1)C(=O)O (stereo partly drawn) [Compound (116), (6R,7R)-7-[(Z)-2-(2-aminothiazol-4-yl)-2-(2-carboxypropyl-2-yloxyimino)acetoamido]-3-(1-azabicyclo[3,3,0]octane-l-io)methyl-3-cephem-4-carboxylate]	0.05 (≈ 0.0864 µM)	0.0063 (≈ 0.0109 µM)	–	0.0063 (≈ 0.0109 µM)	0.2 (≈ 0.346 µM)	0.0125 (≈ 0.0216 µM)	0.0125 (≈ 0.0216 µM)	0.78 (≈ 1.35 µM)	–	–	–	–	–	–	–	–	–
CO/N=C(\C(=O)N[C@@H]1C(=O)N2C(C(=O)[O-])=C(C[N+]34CCC(CC3)C4)CS[C@H]12)c1csc(N)n1 [Compound (200), (6R,7R)-7-[(Z)-2-(2-aminothiazol-4-yℓ)-2-methoxyiminoacetoamido]-3-(1-azabicyclo[2,2,1]heptane-l-io)methyl-3-cephem-4-carboxylate]	0.05 (≈ 0.102 µM)	0.0063 (≈ 0.0128 µM)	0.05 (≈ 0.102 µM)	0.0125 (≈ 0.0254 µM)	1.56 (≈ 3.17 µM)	0.025 (≈ 0.0508 µM)	–	0.2 (≈ 0.406 µM)	–	–	–	–	–	–	–	–	0.025 (≈ 0.0508 µM)
